Results as given in patent US5525617A, “Fibrinogen receptor antagonists” (Merck & Co., Inc., priority 1994, dated 1996).

System: gel-filtered human platelets
Test: in vitro ADP-stimulated platelet aggregation (inhibition)
Format: cell-based
Conditions: gel-filtered human platelets 2×10^8 per ml, fibrinogen 100 micrograms per ml, Ca^2+ 1 mM, 10 mM ADP, 37° C., Chronolog aggregometer
Description: Platelet aggregation is measured at 37° C. in a Chronolog aggregometer. The reaction mixture contains gel-filtered human platelets (2×10^8 per ml), fibrinogen (100 micrograms per ml (ug/ml)), Ca^2+ (1 mM), and the compound to be tested. The aggregation is initiated by adding […] ADP 1 minute after the other components are added. The reaction is then allowed to proceed for at least 2 minutes. The extent of inhibition of aggregation is expressed as the percentage of the rate of aggregation observed in the absence of inhibitor. The IC50 is the dose of a particular compound inhibiting aggregation by 50% relative to a control lacking the compound.
In addition to the following preparative procedures, several examples of in vitro bioactivity of compounds within the scope of the present invention are indicated. To illustrate, one test which is used to evaluate fibrinogen receptor antagonist activity is based on evaluation of inhibition of ADP-stimulated platelets. Aggregation requires that fibrinogen bind to and occupy the platelet fibrinogen receptor site. Inhibitors of fibrinogen binding inhibit aggregation. In the ADP-stimulated platelet aggregation assay used to determine inhibition associated with the compounds claimed in the instant invention, human platelets are isolated from fresh blood, collected into acid citrate/dextrose by differential centrifugation followed by gel filtration on Sepharose 2B in divalent ion-free Tyrode's buffer (pH 7.4) containing 2% bovine serum albumin.

| SMILES | IC50 |
| --- | --- |
| O=C(O)CCNC(=O)c1ccc2c(c1)C(=O)C(CCC1CCNCC1)C2 (stereo not drawn) | 2300 nM |
| CCCCS(=O)(=O)N[C@@H](CNC(=O)c1ccc2c(c1)C(=O)C(CCC1CCNCC1)C2)C(=O)O (stereo partly drawn) | 9 nM |
| CCCCS(=O)(=O)N[C@@H](CNC(=O)c1ccc2c(c1)CC(CCC1CCNCC1)C2)C(=O)O (stereo partly drawn) | 14 nM |
